The text below walks through data of ChEMBL document CHEMBL1201862, “PubChem BioAssay data set” (2004).

Test systems include BT-549; SF-295; U-251; TK-10; ACHN; NCI/ADR-RES; M14; CAKI-1; HOP-62; CCRF-CEM; MDA-MB-231; EKVX; MOLT-4; SF-268; UACC-62; NCI-H522; HL-60; UO-31; SF-539; RXF 393.
Experiment in all cases: inhibition of tumour cell growth, NCI panel, 48 h

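Compound exposure: 48 hours, 5 concentrations, 96-well plates. At the GI50, growth is halved.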 The source made the active and inactive calls. Cut-off read from the data, not from the text of the source: active = GI50 up to about 1.1 µM and inactive = higher. Some results are limits rather than exact numbers.

With `C=C1C(=O)OC2C1CCC(=C)C1CC(O)C(=C)C12` (stereo not given), the GI50 in the assay on BT-549 is 15.3 µM (inactive); with SF-295, 38.5 µM (inactive); in the assay on U-251, 23.3 µM (inactive); in the assay on TK-10, 8.02 µM (inactive); in the assay with ACHN, 3.18 µM (inactive); in the assay on NCI/ADR-RES, 24 µM (inactive). For the same compound, the GI50 in the assay with M14 is 17.5 µM (inactive); in the assay on CAKI-1, 4.28 µM (inactive); in the assay with HOP-62, 21.2 µM (inactive); in the assay on CCRF-CEM, 2.21 µM (inactive); in the assay on MDA-MB-231, 16.3 µM (inactive); with EKVX, 7.16 µM (inactive). In addition, the GI50 in the assay with MOLT-4 is 8.38 µM (inactive); in the assay with SF-268, 15.4 µM (inactive); in the assay with UACC-62, 13.5 µM (inactive); in the assay on NCI-H522, 2.58 µM (inactive); with HL-60 it was 1.82 µM (inactive); in the assay on UO-31, 15.3 µM (inactive). The GI50 with SF-539 was 16.9 µM (inactive); in the assay on RXF 393 it was 13.1 µM (inactive).

For the compound `C[C@]12CC[C@H](O)C[C@H]1CC[C@@H]1[C@@H]2CC[C@]2(C)[C@@H](C3=CC(=O)OC3)CC[C@]12O` [DIGITOXIGENIN], the GI50 in the assay with BT-549 was 0.0372 µM (active); in the assay with SF-295, 0.0473 µM (active); with U-251, 0.199 µM (active); in the assay with TK-10, 0.0944 µM (active); in the assay on ACHN, < 0.0125 µM (active); with NCI/ADR-RES, 0.115 µM (active). The GI50 in the assay on M14 was 0.226 µM (active); in the assay on CAKI-1, 0.0357 µM (active); with HOP-62, 0.04 µM (active); with CCRF-CEM it was 0.0297 µM (active); in the assay on MDA-MB-231, 0.774 µM (active); in the assay on EKVX, 0.0873 µM (active). For the same compound, the GI50 was < 0.01 µM (active) in the assay on MOLT-4; 0.0367 µM (active) in the assay with SF-268; 0.36 µM (active) in the assay on UACC-62; < 0.01 µM (active) in the assay on NCI-H522; 0.0524 µM (active) with HL-60; 0.117 µM (active) in the assay on UO-31. Also, the results for the GI50 in the assay on SF-539 and in the assay with RXF 393 were 0.0356 µM (active) and 0.0144 µM (active), respectively.
